# Reference: US20240365781A1, “SYNERGISTICALLY EFFECTIVE HERBICIDE COMPOSITION COMPRISING PELARGONIC ACID AND FLAZASULFURON” (Belchim Crop Protection NV, priority 2017, published 2024)
# How the values were obtained:
# Assay type in all cases: in vivo
# [1] = test system: Stellaria media; experiment: post-emergence field trial under rows of apple trees, 150-200 L water/ha (Examples 10-12); settings: 20 g of active compound/ha
# Method: (§1) Herbicidal activity was determined by performing a post-emergence test. […] The corresponding mixture was in the form of a spray solution. Besides, spray solutions of individual compositions comprising pelargonic acid or flazasulfuron were used.
# (§2) The spray solution was applied on plants of unwanted vegetation present on fields where perennial crops were grown.
# (§3) After 5 to 88 days after application of the spray solution, the degree of damage to the unwanted vegetation is rated in % of plants of unwanted vegetation that were killed. Tests were performed on test fields (field trials).
# [2] = test system: Sonchus oleracea; experiment: as above; settings: 20 g of active compound/ha
# Method: as §1, §2, §3
# [3] = test system: Lolium multiflorum; experiment: as above; settings: 20 g of active compound/ha
# Method: as §1, §2, §3
# [4] = test system: Trifolium repens; experiment: as above; settings: 20 g of active compound/ha
# Method: as §1, §2, §3
# [5] = test system: Capsella bursa-pastoris; experiment: as above; settings: 20 g of active compound/ha
# Method: as §1, §2, §3
# [6] = test system: Taraxacum officinalis; experiment: as above; settings: 20 g of active compound/ha
# Method: as §1, §2, §3
# [7] = test system: Chenopodium album; experiment: as above; settings: 20 g of active compound/ha
# Method: as §1, §2, §3
# [8] = test system: Veronica persicae; experiment: as above; settings: 20 g of active compound/ha
# Method: as §1, §2, §3
# [9] = test system: Senecio vulgaris; experiment: as above; settings: 20 g of active compound/ha
# Method: as §1, §2, §3
# [10] = test system: Poa annua; experiment: as above; settings: 20 g of active compound/ha
# Method: as §1, §2, §3
# [11] = test system: Matricaria chamomilla; experiment: post-emergence test, pot trial (Examples 1-5); settings: bigger plants, 28 d, PT, pelargonic acid 10880 g/ha, 16 L/ha
# Source text: (§4) The expected activity of a given combination of two or three herbicides can be calculated as follows according to a calculation method by Colby (cf. COLBY, S. R.: “Calculating synergistic and antagonistic responses of herbicide combinations”, • Weeds 15, pages 20-22, 1967): • If X=% damage by herbicide (A) at an application rate of m g/ha, • Y=% damage by herbicide (B) at an application rate of n g/ha, • E=the expected damage by herbicides (A) and (B) at application rates of m and n […] and, • then for a combination:
# (§5) Individual compositions comprising pelargonic acid or flazasulfuron are compared with a herbicide composition according to the invention comprising pelargonic acid and flazasulfuron.
# (§6) Herbicidal activity was determined by performing a post-emergence test. […] The corresponding mixture was in the form of a spray liquor. Besides, spray liquors of individual compositions comprising pelargonic acid or flazasulfuron were used.
# (§7) Tests were performed on test fields (field trials) or in pots (pot trials).
# [12] = test system: Setaria pumila; experiment: post-emergence test, pot trial (Examples 1-5); settings: young plants, 28 d, PT, pelargonic acid 10880 g/ha, 16 L/ha
# Source text: as §4, §5, §6, §7
# [13] = test system: Geranium dissectum; experiment: post-emergence test, pot trial (Examples 1-5); settings: 28 d, PT, pelargonic acid 10880 g/ha, 16 L/ha
# Source text: as §4, §5, §6, §7
# [14] = test system: Trifolium repens; experiment: post-emergence test, pot trial (Examples 1-5); settings: 28 d, PT; pelargonic acid 10880 g/ha, flazasulfuron 50 g/ha; 16 L/ha
# Source text: as §4, §5, §6, §7
# [15] = test system: Poa annua; experiment: post-emergence test, pot trial (Examples 1-5); settings: 28 d, PT; pelargonic acid 10880 g/ha, flazasulfuron 50 g/ha; 16 L/ha
# Source text: as §4, §5, §6, §7
compound,measurement,setting,value
"COc1cc(OC)nc(NC(=O)NS(=O)(=O)c2ncccc2C(F)(F)F)n1 [Flazasulfuron, 1-(4,6-dimethoxypyrimidin-2-yl)-3-(3-trifluoromethyl-2-pyridylsulfonyl)urea]",herbicidal effect (%),[1]; Stellaria media/5 d,0%
same,herbicidal effect (%),[1]; Stellaria media/18 d,79%
same,herbicidal effect (%),[2]; Sonchus oleracea/6 d,18%
same,herbicidal effect (%),[2]; Sonchus oleracea/16 d,28%
same,herbicidal effect (%),[2]; Sonchus oleracea/30 d,43%
same,herbicidal effect (%),[2]; Sonchus oleracea/57 d,23%
same,herbicidal effect (%),[2]; Sonchus oleracea/78 d,45%
same,herbicidal effect (%),[3]; Lolium multiflorum/5 d,0%
same,herbicidal effect (%),[3]; Lolium multiflorum/18 d,79%
same,herbicidal effect (%),[3]; Lolium multiflorum/32 d,87%
same,herbicidal effect (%),[3]; Lolium multiflorum/61 d,91%
same,herbicidal effect (%),[3]; Lolium multiflorum/88 d,89%
same,herbicidal effect (%),[4]; Trifolium repens/7 d,20%
same,herbicidal effect (%),[4]; Trifolium repens/16 d,40%
same,herbicidal effect (%),[4]; Trifolium repens/26 d,63%
same,herbicidal effect (%),[4]; Trifolium repens/59 d,68%
same,herbicidal effect (%),[5]; Capsella bursa-pastoris/6 d,16%
same,herbicidal effect (%),[5]; Capsella bursa-pastoris/16 d,45%
same,herbicidal effect (%),[5]; Capsella bursa-pastoris/30 d,55%
same,herbicidal effect (%),[5]; Capsella bursa-pastoris/57 d,58%
same,herbicidal effect (%),[6]; Taraxacum officinalis/5 d,0%
same,herbicidal effect (%),[6]; Taraxacum officinalis/18 d,71%
same,herbicidal effect (%),[6]; Taraxacum officinalis/32 d,83%
same,herbicidal effect (%),[6]; Taraxacum officinalis/61 d,72%
same,herbicidal effect (%),[6]; Taraxacum officinalis/88 d,71%
same,herbicidal effect (%),[7]; Chenopodium album/6 d,13%
same,herbicidal effect (%),[7]; Chenopodium album/16 d,59%
same,herbicidal effect (%),[7]; Chenopodium album/30 d,63%
same,herbicidal effect (%),[7]; Chenopodium album/57 d,58%
same,herbicidal effect (%),[7]; Chenopodium album/78 d,64%
same,herbicidal effect (%),[8]; Veronica persicae/7 d,20%
same,herbicidal effect (%),[8]; Veronica persicae/16 d,4%
same,herbicidal effect (%),[8]; Veronica persicae/26 d,20%
same,herbicidal effect (%),[8]; Veronica persicae/59 d,0%
same,herbicidal effect (%),[9]; Senecio vulgaris/6 d,4%
same,herbicidal effect (%),[9]; Senecio vulgaris/28 d,13%
same,herbicidal effect (%),[9]; Senecio vulgaris/58 d,18%
same,herbicidal effect (%),[10]; Poa annua/6 d,10%
same,herbicidal effect (%),[10]; Poa annua/16 d,53%
same,herbicidal effect (%),[10]; Poa annua/30 d,60%
same,herbicidal effect (%),[10]; Poa annua/57 d,58%
same,herbicidal effect (%),[10]; Poa annua/78 d,83%
same,herbicidal effect,[11]; flazasulfuron 25 g/ha,0%
same,herbicidal effect,[11]; flazasulfuron 50 g/ha,2%
same,herbicidal effect,[12]; flazasulfuron 25 g/ha,89%
same,herbicidal effect,[12]; flazasulfuron 50 g/ha,92%
same,herbicidal effect,"[13]; bigger plants, flazasulfuron 50 g/ha",0%
same,herbicidal effect,"[13]; young plants, flazasulfuron 25 g/ha",7%
same,herbicidal effect,"[13]; young plants, flazasulfuron 50 g/ha",8%
same,herbicidal effect,[14],1.2%
same,herbicidal effect,[15],0%
